According to PMC11747885, “Potent inhibitors of the human RNA ligase Rlig1 highlights its role in RNA integrity maintenance under oxidative cellular stress” (Chemical Science, 2025):
Values joined by “and” are separate entries in the source; they are usually repeats but may differ in a detail not shown here. Equal values may be shown once. “Also recorded” adds a separate entry of the source. Read-outs that look alike come from different tables or passages of the source.

Legend:
HEK293 cells [1] = test: Light-microscopy of inhibitor- and menadione-treated HEK293 cells; format: cell-based, human; conditions: 30 µM compound 24 h, then menadione 5 h
HEK293 cells [2] = test: RNA integrity analysis of HEK293 cells treated with inhibitors and menadione (TapeStation 28S/18S rRNA); format: cell-based, human; conditions: 30 μM compound 24 h
Rlig1-AMP = target: T1, Rlig1-AMP (Homo sapiens, UniProt Q8N999); test: Radioactive RNA ligation assay (hit validation, 10 µM test and IC50 determination); format: biochemical; conditions: for Product formation [%] of RNA ligation, Rlig1: three replicates
T1 construct: made in house; host or cells: E. coli BL21 (DE3), pET15b-Rlig1
T1 sequence (Q8N999 whole entry): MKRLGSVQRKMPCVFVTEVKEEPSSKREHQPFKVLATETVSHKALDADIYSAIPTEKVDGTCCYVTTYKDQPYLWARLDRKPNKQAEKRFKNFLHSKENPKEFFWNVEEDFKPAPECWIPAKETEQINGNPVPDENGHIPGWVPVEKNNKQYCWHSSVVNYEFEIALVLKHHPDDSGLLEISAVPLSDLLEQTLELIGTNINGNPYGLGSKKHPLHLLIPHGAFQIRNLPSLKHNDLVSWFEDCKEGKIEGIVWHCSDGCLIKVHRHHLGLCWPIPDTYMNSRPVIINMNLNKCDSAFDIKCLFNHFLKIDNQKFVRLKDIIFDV

HEK293 cells [3] = test: Cell viability assay of HEK293 cells treated with inhibitors (CellTiter-Glo)
HEK293 cells [4] = test: Cell viability assay of HEK293 cells treated with inhibitors and menadione; format: cell-based, human; conditions: for Mean Diff, (Predicted (LS) mean diff,) w/o menadione - w menadione: 2 way ANOVA, Šídák's multiple comparisons test, normalised viability
[5] = log(inhibitor) vs. response, variable slope (four parameters)

With `Nc1nccc(Nc2ccc(NC(=O)c3ccc(Nc4ncnc5ccccc45)cc3)cc2)n1` [Compound 47] the cell morphology (HEK293 cells [1]) was “poor adherence and cell shrinkage”, the 28S/18S ratio (HEK293 cells [2]; Menadione 0 μM) was 3.0 and the 28S/18S ratio (HEK293 cells [2]; Menadione 40 μM 5 h) was 2.1. The 28S/18S ratio (HEK293 cells [2]; Menadione 60 μM 5 h) was 0.9, the “inhibition of Rlig1-AMP ligation (urea-PAGE)” value (Rlig1-AMP; 10 μM compound, 500 nM Rlig1-AMP, 20 min 37 °C) was “Ligation was inhibited; also recorded: inhibited Rlig1-AMP” and the “Bottom (best-fit value), Rlig1” value (Rlig1-AMP; Figure 5B, Sigmoidal, 4PL) was 1.324. For the same compound, the “HillSlope (best-fit value), Rlig1” value (Rlig1-AMP; Figure 5B, Sigmoidal, 4PL) was -6.786, the “Span (best-fit value), Rlig1” value (Rlig1-AMP; Figure 5B, Sigmoidal, 4PL) was 68.62 and the “Top (best-fit value), Rlig1” value (Rlig1-AMP; Figure 5B, Sigmoidal, 4PL, X is log(concentration)) was 69.95. For the same compound, the “LogIC50 (best-fit value), Rlig1” value (Rlig1-AMP; Figure 5B, Sigmoidal, 4PL, log of µM) was 0.6576, the IC50 (Rlig1-AMP; Figure 5B, Sigmoidal, 4PL, read-out: IC50 (best-fit value), Rlig1) was 4.55 µM and the “HillSlope (best-fit value)” value (Rlig1-AMP; four-parameter fit) was 6.82. The “Span (best-fit value)” value (Rlig1-AMP; four-parameter fit) was 92.85, the IC50 (Rlig1-AMP; four-parameter fit, n = 3, read-out: IC50 (best-fit value)) was 4.54 µM and the “Product formation [%] of RNA ligation, Rlig1” value (“Product formation [%]” below) (Rlig1-AMP; log (47 [µM]) 0.273001) was 3.068% and 1.075% and 8.355%. The “Product formation [%]” value (Rlig1-AMP; log (47 [µM]) 0.574031) was 27.5278% and 13.8043% and 34.7122%, the “Product formation [%]” value (Rlig1-AMP; log (47 [µM]) 0.875061) was 98.3243% and 92.1834% and 95.246% and the “Product formation [%]” value (Rlig1-AMP; log (47 [µM]) 1.17609) was 100% and 96.1318% and 97.0084%. The “Product formation [%]” value (Rlig1-AMP; log (47 [µM]) 1.47712) was 100% and 98.2475% and 98.511%, the “Product formation [%]” value (Rlig1-AMP; log (47 [µM]) -0.0280287) was 6.829% and 0.6969% and 9.287% and the “Product formation [%]” value (Rlig1-AMP; log (47 [µM]) -0.329059) was 4.933% and 0% and 8.486%. The “Product formation [%]” value (Rlig1-AMP; log (47 [µM]) -0.630089) was 7.315% and 6.312% and 9.428%, the inhibition at 30 µM (Rlig1-AMP; log Compound [µM] 1.47712, replicates I-III, read-out: percentage inhibition (dose response curve for IC50)) was 100% and the inhibition at 0.234375 µM (Rlig1-AMP; log Compound [µM] -0.630089, replicates I-III, read-out: percentage inhibition (dose response curve for IC50)) was 7.32%. For the same compound, the “LogIC50 (best-fit value)” value (Rlig1-AMP; log of µM, four-parameter fit) was 0.6569, the “Bottom (best-fit value)” value (Rlig1-AMP; [5]) was 5.434 and the “Top (best-fit value)” value (Rlig1-AMP; [5]) was 98.28. For the same compound, the IC50 (Rlig1-AMP; radioactive ligation assay, 500 nM Rlig1-AMP, 20 min 37 °C, n = 3, read-out: IC50) was 4.54 µM, the “cytotoxicity (in words)” value (HEK293 cells [3]; HEK293, 24 h, up to 30 μM) was “no detectable cytotoxicity” and the “IC50 (Figure 3D: EC50 values for plot; log(inhibitor) vs. response -- Variable slope (four parameters))” value (HEK293 cells [3]; HEK293 cell viability, fit per plate (3 plates, 4 technical replicates each), highest tested concentration 30 µM) was 163.557 µM and 35.63 µM and 278.968 µM. The “LogIC50 (log(inhibitor) vs. response -- Variable slope (four parameters))” value (HEK293 cells [3]; HEK293 cell viability, fit per plate (3 plates, 4 technical replicates each), log of [µM]) was 2.214 and 1.552 and 2.446, the EC50 (HEK293 cells [3]; Homo sapiens, HEK293, 24 h) was over 30 µM and the “Mean Diff, (Predicted (LS) mean diff,) w/o menadione - w menadione” value (HEK293 cells [4]; 7.5 µM compound) was 27.05. For the same compound, the “Cell viability raw signal, technical replicates” value (shortened to “Cell viability raw signal”) (HEK293 cells [4]; 7.5 µM compound, w Menadione (40µM), 20240508 plate 012) was 13447 and 15406 and 23888 and 24895, the “Cell viability raw signal” value (HEK293 cells [4]; 7.5 µM compound, w Menadione (40µM), 20240508 plate 013) was 16840 and 14275 and 23542 and 21544 and the “Cell viability raw signal” value (HEK293 cells [4]; 7.5 µM compound, w Menadione (40µM), 20240515 plate 014) was 21755 and 24259 and 24363 and 21863. The “Cell viability raw signal” value (HEK293 cells [4]; 7.5 µM compound, w Menadione (40µM), 20240515 plate 015) was 23813 and 26835 and 27301 and 27718, the “Cell viability raw signal” value (HEK293 cells [4]; 7.5 µM compound, w/o Menadione, 20240508 plate 012) was 495890 and 394280 and 400970 and 404470 and the “Cell viability raw signal” value (HEK293 cells [4]; 7.5 µM compound, w/o Menadione, 20240508 plate 013) was 392490 and 381070 and 376820 and 393330. For the same compound, the “Cell viability raw signal” value (HEK293 cells [4]; 7.5 µM compound, w/o Menadione, 20240515 plate 014) was 358610 and 355380 and 351680 and 351260, the “Cell viability raw signal” value (HEK293 cells [4]; 7.5 µM compound, w/o Menadione, 20240515 plate 015) was 363930 and 358300 and 404440 and 357100 and the “Mean Diff, (Predicted (LS) mean diff,) w/o menadione - w menadione” value (HEK293 cells [4]; 15 µM compound) was 26.73. For the same compound, the “Cell viability raw signal” value (HEK293 cells [4]; 15 µM compound, w Menadione (40µM), 20240508 plate 012) was 20771 and 17972 and 20655 and 18810, the “Cell viability raw signal” value (HEK293 cells [4]; 15 µM compound, w Menadione (40µM), 20240508 plate 013) was 17686 and 14464 and 20096 and 19671 and the “Cell viability raw signal” value (HEK293 cells [4]; 15 µM compound, w Menadione (40µM), 20240515 plate 014) was 22870 and 22437 and 28706 and 27891. For the same compound, the “Cell viability raw signal” value (HEK293 cells [4]; 15 µM compound, w Menadione (40µM), 20240515 plate 015) was 23978 and 24873 and 26687 and 23492, the “Mean Diff, (Predicted (LS) mean diff,) w/o menadione - w menadione” value (HEK293 cells [4]; 30 µM compound) was 26.18 and the “Cell viability raw signal” value (HEK293 cells [4]; 30 µM compound, w Menadione (40µM), 20240508 plate 012) was 17555 and 22131 and 18922 and 17419. For the same compound, the “Cell viability raw signal” value (HEK293 cells [4]; 30 µM compound, w Menadione (40µM), 20240508 plate 013) was 13658 and 13606 and 15514 and 16155 and the “Cell viability raw signal” value (HEK293 cells [4]; 30 µM compound, w Menadione (40µM), 20240515 plate 014) was 15897 and 16266 and 21346 and 20584.
